One test relates to MCF-10A. Nature of the test: SRB-based cytotoxicity assay. It is filed as cell-based. Conditions: Homo sapiens, MCF-10A; MCF10A non-cancer; 72 hours; Table 4. The protocol:
(§1) For (anti)proliferation assays, 4,000-5,000 cells/well of the 96-well clustered dish were incubated for 16 hours, as described previously (Hu et al., 2008; Skehan et al., 1990). After 16 hours, culture medium was replaced with fresh medium containing different dilutions of test compounds dissolved in DMSO. Some wells were treated with 100 μl of 10% trichloroacetic acid (TCA) as a negative control and sham (medium with dimethyl sulfoxide; DMSO) treated cells were used as a positive control. After 72 hours post-incubation, medium was removed and cells were fixed with 10% TCA at 4° C. for 1 hour. TCA was removed and cells were washed with cold tap water, and plate was air-dried, followed by addition of 50 μl of 0.4% SRB staining solution to each well. After 30 minutes incubation, SRB staining solution was removed. Cells were washed with 1% acetic acid solution, and then washed with tap water to remove unbound staining solution, followed by air-drying. 200 μl of 10 mM (pH10.5) trizma base buffer was added to each well to solubilise macromolecules. SRB stained macromolecules were determined at a 540 nm wavelength using an automated plate reader (Synergy H4 Hybrid Multi-Mode Microplate Reader, BioTek, Winooski, Vt.). Cell growth (inhibition) was calculated by the following formula:
(§2) % cells proliferation=[(AT−CT)/(ST−CT)]×100
(§3) wherein AT=absorbance of treated cells, CT=absorbance of negative control cells, and ST=absorbance of sham treated cells. IC50 values were calculated from sigmoidal dose-response curves generated by two independent biological replicates, with quadruplicate in each set by using Graph Pad Prism v.5.04 software. […] The combinational index (CI) was calculated as described previously (Chou 2006). If the CI values were less than, equal to or more than 1, it indicates a synergistic, additive or antagonistic effect respectively (Chou 2006). CI values were determined from four independent experiments.

In the next test the test system is HeLa. Nature of the test: SRB-based cytotoxicity assay. It is filed as cell-based. Conditions: Homo sapiens; HeLa; 72 hours; Table 4. The protocol:
as §1, §2, §3

The next test deals with 184B5. Put plainly: SRB-based cytotoxicity assay. Conditions: 184B5 non-cancer. Type of test: cell-based. As for the experimental part:
as §1, §2, §3

A further test has as its system RPMI-8226 (myeloma). Put plainly: SRB-based cytotoxicity assay. Conditions: Homo sapiens, 72 hours, Table 4. Type of test: cell-based. As for the experimental part: as §1, §2, §3
The next test deals with MDA-MB-231. Put plainly: SRB-based cytotoxicity assay. Type of test: cell-based, human. As for the experimental part:
as §1, §2, §3

A further test has as its system MCF-7. Put plainly: SRB-based cytotoxicity assay. It is filed as cell-based, human. The protocol:
as §1, §2, §3

Another test has as its system MDA-MB-468. Put plainly: SRB-based cytotoxicity assay. It is filed as cell-based, human. Conditions: MDA-MB-468, SRB, Table 2. As for the experimental part: as §1, §2, §3
In a further test the test system is RPMI-8226BTZR. Put plainly: Killing of bortezomib-resistant multiple myeloma cells. Type of test: cell-based. The source says:
The RPMI-8226BTZR over-expresses β1, β2 and β5 peptides of the 20S subunit. […] However, RPMI-8226BTZR is sensitive to CTR-20, CTR-21 and CTR-32 (FIG. 36).

A further test concerns MDA-MB231TaxR. Put plainly: SRB-based cytotoxicity assay, single and combination with paclitaxel. It is filed as cell-based. The conditions noted are these: TaxR selected in 100.0 nM paclitaxel. As for the experimental part: All of the cell lines used were purchased from ATCC and cultured in RPMI-1640 supplemented with 10% fetal bovine serum and antibiotics (100 units penicillin/100 μg/ml streptomycin), unless stated otherwise. 1845B5 and MCF-10A non-cancer breast cell lines were cultured in DME/F12 medium supplemented with 10% fetal bovine serum, antibiotics and growth factors. […] The human small cell lung carcinoma H69 cell line and its multidrug-resistant MRP1-overexpressing isogenic H69AR cell line were purchased from ATCC. […] H69 cells grow as large multi-cell aggregates, making it difficult to accurately count cell numbers. […] The IL-6 dependent bortezomib-resistant ANBL6-BR cell line was further supplemented with 1 ng/ml of IL-6. The MCF10AT1 and MCF10CA1a cell lines are isogenic to the MCF10A cell line, and obtained from Dr. Valerie Weaver at the Center for Bioengineering and Tissue Regeneration, UCSF, CA, USA. MCF10AT1 is a premalignant cell line generated by transforming MCF10A with c-Ha-Ras; and MCF10CA1a was isolated by selecting malignant cells after MCF10AT1 cells were engrafted into mice (Liu & Lin 2004; […] et al. 2009). […] The drug-resistant cells were cultured in the absence of drug for at least one passage before carrying out experiments. All cells were maintained in a humidified incubator at 37° C. […] Cell line authentication was performed using short tandem repeat (STR) profiling. For (anti)proliferation assays, 4,000-5,000 cells/well of the 96-well clustered dish were incubated for 16 hours, as described previously (Hu et al., 2008; Skehan et al., 1990). […] Some wells were treated with 100 μl of 10% trichloroacetic acid (TCA) as a negative control and sham (medium with dimethyl sulfoxide; DMSO) treated cells were used as a positive control. […] TCA was removed and cells were washed with cold tap water, and plate was air-dried, followed by addition of 50 μl of 0.4% SRB staining solution to each well. After 30 minutes incubation, SRB staining solution was removed. Cells were washed with 1% acetic acid solution, and then washed with tap water to remove unbound staining solution, followed by air-drying. 200 μl of 10 mM (pH10.5) trizma base buffer was added to each well to solubilise macromolecules. […] Cell growth (inhibition) was calculated by the following formula: % cells proliferation=[(AT-CT)/(ST-CT)]×100 wherein AT=absorbance of treated cells, CT=absorbance of negative control cells, and ST=absorbance of sham treated cells. […] The combinational index (CI) was calculated as described previously (Chou 2006). […] CI values were determined from four independent experiments.

Setting [1] is: Homo sapiens, 72 hours, Table 4.

The term IC50 denotes the concentration at which inhibition is half-maximal. Consider `COc1ccccc1C(=O)/C=C/c1cc2cc(C)c(C)cc2[nH]c1=O` [CTR-23], for which the IC50 in the test on MCF-10A turned out to be 1.12 ± 0.04 µM; in the test on HeLa, 0.64 ± 0.05 µM; in the test on 184B5 (setting [1]) it was 1.32 ± 0.03 µM; with RPMI-8226 (myeloma), 1.41 ± 0.15 µM; in the test with MDA-MB-231 (Homo sapiens, MDA-MB-231, MDA-MB231, 72 hours, Table 4), 1.52 ± 0.12 µM; in the test with MCF-7 (Homo sapiens, MCF7, 72 hours, Table 4) it was 0.5 ± 0.1 µM.

Consider `COc1ccc(F)cc1C(=O)/C=C/c1cc2ccccc2[nH]c1=O` [CTR-29], for which the IC50 was 0.27 ± 0.05 µM in the test on MCF-10A and 0.28 ± 0.01 µM in the test with 184B5 (setting [1]).

As to `COc1ccc2[nH]c(=O)c(/C=C/C(=O)c3cc(F)ccc3OC)cc2c1` [CTR-37], the IC50 is 0.46 ± 0.11 µM with MCF-10A and 0.44 ± 0.02 µM in the test on 184B5 (setting [1]).

For `COc1ccc(C(=O)/C=C/c2cc3ccccc3[nH]c2=O)c(OC)c1` [CTR-27], the IC50 stood at 2.52 ± 0.03 µM with MCF-10A; 2.8 ± 0.18 µM in the test on 184B5 (setting [1]); 2.69 ± 0.24 µM in the test on MDA-MB-231 (MDA-MB231, 72 hours, Table 4).

On to `COc1cc(F)ccc1C(=O)/C=C/c1cc2ccccc2[nH]c1=O` [CTR-30], for which the IC50 was found to be 2.79 ± 0.59 µM with MCF-10A and 2.46 ± 0.14 µM in the test on 184B5 (setting [1]).

Consider `COc1ccc2[nH]c(=O)c(/C=C/C(=O)c3ccc(F)cc3OC)cc2c1` [CTR-38], for which the half-maximal inhibitory concentration (IC50) amounted to 0.11 µM in the test with MCF-10A and 0.16 ± 0.02 µM in the test on 184B5 (setting [1]).

Turning to `COc1ccc(C(=O)/C=C/c2cc3cc(OC)ccc3[nH]c2=O)c(OC)c1` [CTR-35], the IC50 in the test with MCF-10A came to 2.88 ± 0.54 µM; in the test on 184B5 (setting [1]), 4.29 ± 0.06 µM.

For `COc1ccc(OC)c(C(=O)/C=C/c2cc3cc(OC)ccc3[nH]c2=O)c1` [CTR-34], the IC50 came out at 0.98 ± 0.04 µM in the test with MCF-10A and 1.16 ± 0.1 µM in the test with 184B5 (setting [1]).

In the case of `CCOc1ccccc1C(=O)/C=C/c1cc2cc(OC)ccc2[nH]c1=O` [CTR-40, (E)-3-(3-(2-ethoxyphenyl)-3-oxoprop-1-enyl)-6-methoxyquinolin-2(1H)-one], the IC50 in the test with MCF-10A came out at 0.07 µM; with 184B5 (setting [1]) it was 0.1 ± 0.01 µM.

`COc1ccc(OC)c(C(=O)/C=C/c2cc3ccccc3[nH]c2=O)c1` [CTR-26]: the IC50 turned out to be 0.91 ± 0.03 µM with MCF-10A and 0.77 ± 0.11 µM in the test on 184B5 (setting [1]).

Regarding `N.N.[Cl][Pt][Cl]` [Cisplatin, reference compound], the IC50 in the test on 184B5 (SRB, Table 2) is 25.5 µM; in the test with MDA-MB-468, 31 µM; in the test on MDA-MB-231 (MDA-MB-231, SRB, Table 2), 23.7 µM; in the test on MCF-7 (MCF-7, SRB, Table 2), 25.8 µM.

Take `COc1cc2cc(/C=C/C(=O)c3ccccc3OC)c(=O)[nH]c2cc1OC` [CTR-24]: the IC50 in the test on MCF-10A was 2.1 ± 0.39 µM; with 184B5 (setting [1]), 2.37 ± 0.19 µM.

On to `COc1ccc2[nH]c(=O)c(/C=C/C(=O)c3ccc(OC(F)(F)F)cc3OC)cc2c1` [CTR-36], for which the figures for the IC50 in the test with MCF-10A and in the test on 184B5 (setting [1]) were 1.35 ± 0.16 µM and 1.84 ± 0.07 µM, respectively.

For `CC(C)C[C@H](NC(=O)[C@H](Cc1ccccc1)NC(=O)c1cnccn1)B(O)O` [bortezomib, reference compound], in the test on RPMI-8226BTZR, the “resistance of RPMI-8226BTZR compared to RPMI-8226 parental cells” value is “approximately 28 fold”.

With `COc1cc2c(c(OC)c1OC)-c1ccc(OC)c(=O)cc1[C@@H](NC(C)=O)CC2` [Colchicine, reference compound], the “killing of MDA-MB231TaxR compared with parental MDA-MB231” value in the test on MDA-MB231TaxR was “to the same degree as the parental MDA-MB231 cells”.

Regarding `CN(C)CC[C@H](CSc1ccccc1)Nc1ccc(S(=O)(=O)NC(=O)c2ccc(N3CCN(Cc4ccccc4-c4ccc(Cl)cc4)CC3)cc2)cc1[N+](=O)[O-]` [ABT-737, reference compound], the Cell survival rate stood at 98.61 ± 3.93 in the test on MDA-MB-231 (single agent 3.125 μM, MDA-MB231) and 91.01 ± 9.81 in the test with MDA-MB-231 (single agent 6.25 μM, MDA-MB231).

On to `CCN(CC)CCCC(C)Nc1ccnc2cc(Cl)ccc12` (stereo not shown) [Chloroquine, reference compound], for which the IC50 in the test on 184B5 (Homo sapiens, SRB, Table 2) is 76.1 µM; in the test with MDA-MB-468 (Homo sapiens) it was 28.6 µM; with MDA-MB-231 (Homo sapiens, MDA-MB-231, SRB, Table 2), 22.5 µM; in the test on MCF-7 (Homo sapiens, MCF7, MCF-7, SRB, Table 2), 38.4 µM.

Consider `COc1cccc(OC)c1C(=O)/C=C/c1cc2ccccc2[nH]c1=O` [CTR-25, (E)-3-(3-(2,6-dimethoxyphenyl)-3-oxoprop-1-enyl)quinolin-2(1H)-one], for which the half-inhibitory concentration (IC50) amounted to 2.64 ± 0.15 µM in the test on MCF-10A and 2.64 ± 0.17 µM with 184B5 (setting [1]).

The values are drawn from patent US20180344725A1, “QUINOLONE CHALCONE COMPOUNDS AND USES THEREOF” (priority 2015, published 2018).
